Laboratory results reported in ChEMBL document CHEMBL3286190, “Discovery of antitubulin agents with antiangiogenic activity as single entities with multitarget chemotherapy potential” (ACS Med Chem Lett, 2014).
pIC50: −log10 of the molar value. Each block holds one compound with its values, some of them ahead of it. The source made the active and inactive calls. The rule behind the calls is not given here.

Legend:
NCI60 = assay: Growth inhibition of human NCI60 cells after 96 hrs incubation by sulforhodamine B technique; assay type: functional, cell-based
4T1 [1] = settings: Mus musculus, 25 mg/kg
Description: Antitumor activity against ip dosed mouse 4T1 cells expressing luciferase allografted in BALBc/J mouse assessed as reduction in lung metastases at 25 mg/kg twice weekly measured after 32 days

Mus musculus [2] = assay: Toxicity in athymic BALBc/J mouse xenografted with human MDA-MB-435 cells assessed as body weight at 25 mg/kg twice weekly; assay type: organism-based; set-up: dose 25 mg/kg; settings: in vivo
Chorioallantoic membrane = assay: tissue or blood; settings: Gallus gallus
Description: Antiangiogenic activity in chicken chorioallantoic membrane assessed as inhibition of VEGF/bFGF-induced angiogenesis treated 8 hrs after VEGF/bFGF addition measured after 40 hrs by microscopy

HeLa [3] = assay: Growth inhibition of human HeLa cells overexpressing beta-3 after 96 hrs incubation by sulforhodamine B technique; assay type: functional, cell-based
NCI/ADR-RES = assay: Growth inhibition of human NCI/ADR-RES cells overexpressing P-gp after 96 hrs incubation by sulforhodamine B technique; assay type: functional, cell-based
Mus musculus [4] = assay: Toxicity in BALBc/J mouse allografted with mouse 4T1 cells at 25 mg/kg twice weekly measured up to 32 days; assay type: organism-based; set-up: dose 25 mg/kg; settings: in vivo, 768 h
Mus musculus [5] = assay: Toxicity in athymic NCr mouse xenografted with human U251 cells at 25 mg/kg twice weekly measured up to 34 days; assay type: organism-based, U-251; set-up: dose 25 mg/kg; settings: in vivo, 816 h
MDA-MB-435 [6] = settings: Homo sapiens, 25 mg/kg
Description: Antitumor activity against human MDA-MB-435 cells xenografted into flank of athymic BALBc/J mouse assessed as decrease in tumor growth at 25 mg/kg twice weekly measured up to 34 days

4T1 [7] = settings: Mus musculus, 25 mg/kg; remark: listed apart in the source
Description: Antitumor activity against mouse 4T1 cells expressing luciferase allografted in BALBc/J mouse assessed as suppression of tumor growth at 25 mg/kg twice weekly measured up to 30 days

MDA-MB-435 [8] = assay: Cell cycle arrest in human MDA-MB-435 cells assessed as increase in accumulation at G2/M phase at IC50 concentration after 2 hrs by propidium iodide staining-based flow cytometry; assay type: functional
MDA-MB-435 [9] = settings: Homo sapiens, 25 mg/kg; remark: listed apart in the source
Description: Antitumor activity against human MDA-MB-435 cells xenografted into flank of athymic BALBc/J mouse assessed as decrease in tumor vascular density at 25 mg/kg twice weekly by CD31/PECAM-1 immunohistochemical staining

Homo sapiens = species on record: Homo sapiens; assay: Disruption of microtubule organization in human MDA-MB-435 cells at IC50 concentration after 2 hrs by immunofluorescence assay; assay type: cell-based
MDA-MB-435 [10] = assay: Induction of apoptosis in human MDA-MB-435 cells assessed as caspase 3 cleavage at IC50 concentration after 48 hrs by Western blotting analysis; assay type: functional, cell-based
MDA-MB-435 [11] = assay: Induction of apoptosis in human MDA-MB-435 cells assessed as PARP cleavage at IC50 concentration after 48 hrs by Western blotting analysis; assay type: functional, cell-based
Tubulin (Homo sapiens) = Tubulin (Homo sapiens) (UniProt P68371+Q9H4B7+P0DPH7+P68366+Q13509+Q71U36+P04350+Q3ZCM7+P07437+P68363+Q9BQE3+Q6PEY2+Q13885+Q9BVA1+Q9BUF5); assay: Displacement of [3H]-colchicine from tubulin (unknown origin) at 50 uM relative to control; assay type: protein-complex assay
U-251 [12] = settings: Homo sapiens, 25 mg/kg
Description: Antitumor activity against human U251 cells xenografted into athymic NCr mouse assessed as decrease in tumor growth at 25 mg/kg twice weekly measured up to 34 days

[13] = Growth inhibition of human OVCAR8 cells after 96 hrs incubation by sulforhodamine B technique; assay type: functional, cell-based; settings: OVCAR-8, 96 h
HeLa [14] = assay: Growth inhibition of wild type human HeLa cells after 96 hrs incubation by sulforhodamine B technique; assay type: functional, cell-based
Tubulin = Tubulin (Bos taurus, UniProt Q6B856+Q862L2+Q862F3); assay: Inhibition of bovine brain tubulin assembly preincubated for 15 mins followed by GTP addition measured for 20 mins by spectrophotometry
Mus musculus [15] = assay: Toxicity in athymic NCr mouse at 30 mg/kg twice weekly measured up to 34 days; settings: in vivo, 816 h
Mus musculus [16] = assay: Toxicity in athymic BALBc/J mouse xenografted with human MDA-MB-435 cells assessed as body weight at 30 mg/kg twice weekly; assay type: organism-based; set-up: dose 30 mg/kg; settings: in vivo
MDA-MB-435 [17] = assay: Antitumor activity against human MDA-MB-435 cells xenografted into flank of athymic BALBc/J mouse assessed as decrease in tumor vascular density at 30 mg/kg twice weekly by CD31/PECAM-1 immunohistochemical staining; assay type: functional, organism-based; set-up: dose 30 mg/kg
MDA-MB-435 [18] = assay: Antitumor activity against human MDA-MB-435 cells xenografted into flank of […] assessed as decrease in tumor growth at 30 mg/kg twice weekly measured up to 34 days; assay type: functional, organism-based; set-up: dose 30 mg/kg
U-251 [19] = assay: Antitumor activity against human U251 cells xenografted into athymic NCr mouse assessed as decrease in tumor growth at 30 mg/kg twice weekly measured up to 34 days; assay type: functional, organism-based; set-up: dose 30 mg/kg
Mus musculus [20] = assay: Toxicity in athymic BALBc/J mouse xenografted with human MDA-MB-435 cells assessed as body weight at 35 mg/kg twice weekly; assay type: organism-based; set-up: dose 35 mg/kg; settings: in vivo
MDA-MB-435 [21] = assay: Antitumor activity against human MDA-MB-435 cells xenografted into flank of […] assessed as decrease in tumor growth at 35 mg/kg twice weekly measured up to 34 days; assay type: functional, organism-based; set-up: dose 35 mg/kg
MDA-MB-435 [22] = assay: Antitumor activity against human MDA-MB-435 cells xenografted into flank of athymic BALBc/J mouse assessed as decrease in tumor vascular density at 35 mg/kg twice weekly by CD31/PECAM-1 immunohistochemical staining; assay type: functional, organism-based; set-up: dose 35 mg/kg
4T1 [23] = assay: Antitumor activity against ip dosed mouse 4T1 cells expressing luciferase allografted in BALBc/J mouse assessed as reduction in lung metastases at 35 mg/kg twice weekly measured after 32 days; assay type: functional, organism-based; set-up: dose 35 mg/kg
Mus musculus [24] = assay: Toxicity in athymic NCr mouse xenografted with human cells at 35 mg/kg twice weekly measured up to 34 days; settings: in vivo, 816 h
U-251 [25] = assay: Antitumor activity against human U251 cells xenografted into athymic NCr mouse assessed as decrease in tumor growth at 35 mg/kg twice weekly measured up to 34 days; assay type: functional, organism-based; set-up: dose 35 mg/kg
Mus musculus [26] = assay: Toxicity in BALBc/J mouse allografted with mouse 4T1 cells at 35 mg/kg twice weekly measured up to 32 days; assay type: organism-based; set-up: dose 35 mg/kg; settings: in vivo, 768 h
4T1 [27] = assay: Antitumor activity against mouse 4T1 cells expressing luciferase allografted in BALBc/J mouse assessed as suppression of tumor growth at 35 mg/kg twice weekly measured up to 30 days; assay type: functional, organism-based; set-up: dose 35 mg/kg

pIC50 (HeLa [3]): 6.55
inhibition (Tubulin (Homo sapiens)): 55%
pIC50 (HeLa [14]): 6.55
IC50 (Tubulin): 21 µM
SMILES: COc1ccc(N(C)c2nc(C)nc3c(Cc4ccccc4)c[nH]c23)cc1.Cl
growth inhibition (GI) (NCI60): Active
inhibition (4T1 [1]): Active
Activity (Mus musculus [2]): Non-toxic
pIC50 (Chorioallantoic membrane): 5.54
pIC50 (NCI/ADR-RES): 6.15
Activity (Mus musculus [4]): Non-toxic
Activity (Mus musculus [5]): Non-toxic
inhibition (MDA-MB-435 [6]): Active
inhibition (4T1 [7]): Active
Activity (MDA-MB-435 [8]): Active
inhibition (MDA-MB-435 [9]): Active
Activity (Homo sapiens): Active
Activity (MDA-MB-435 [10]): Active
Activity (MDA-MB-435 [11]): Active
inhibition (U-251 [12]): Active
pIC50 [13]: 6.00

pIC50 (HeLa [3]): < 5.00
pIC50 (HeLa [14]): < 5.00
IC50 (Tubulin): > 20 µM
SMILES: COc1ccc(Nc2nc(C)nc3c(Cc4ccccc4)c[nH]c23)cc1.Cl

IC50 (Tubulin): > 40 µM
SMILES: COc1ccc(Nc2nc(C)nc3c(Cc4ccccc4)c[nH]c23)c(OC)c1.Cl
pIC50 (NCI/ADR-RES): < 5.30
pIC50 [13]: < 5.30

SMILES: CCN(CC)CCNC(=O)c1c(C)[nH]c(/C=C2\C(=O)Nc3ccc(F)cc32)c1C [SUNITINIB]
Activity (Mus musculus [15]): Non-toxic
Activity (Mus musculus [16]): Non-toxic
inhibition (MDA-MB-435 [17]): Active
inhibition (MDA-MB-435 [18]): Active
inhibition (U-251 [19]): Active

pIC50 (HeLa [3]): 7.80
pIC50 (HeLa [14]): 8.28
SMILES: CC(=O)O[C@H]1C(=O)[C@@]2(C)[C@H]([C@H](OC(=O)c3ccccc3)[C@]3(O)C[C@H](OC(=O)[C@H](O)[C@@H](NC(=O)c4ccccc4)c4ccccc4)C(C)=C1C3(C)C)[C@]1(OC(C)=O)CO[C@@H]1C[C@@H]2O [PACLITAXEL]
pIC50 (NCI/ADR-RES): 5.30
pIC50 [13]: 8.00

IC50 (Tubulin): 10 µM
SMILES: COc1ccc(N(C)c2nc(C)nc3cc[nH]c23)cc1.Cl

pIC50 (HeLa [3]): < 5.00
pIC50 (HeLa [14]): < 5.00
IC50 (Tubulin): > 20 µM
SMILES: Cc1nc(N(C)c2ccccc2)c2[nH]cc(Cc3ccccc3)c2n1.Cl

SMILES: COc1ccc(/C=C\c2cc(OC)c(OC)c(OC)c2)cc1O [COMBRETASTATIN A4]
pIC50 (HeLa [3]): 8.60
pIC50 (HeLa [14]): 8.74

SMILES: CC(=O)O[C@@]12CO[C@@H]1C[C@H](O)[C@@]1(C)C(=O)[C@H](O)C3=C(C)[C@@H](OC(=O)[C@H](O)[C@@H](NC(=O)OC(C)(C)C)c4ccccc4)C[C@@](O)([C@@H](OC(=O)c4ccccc4)[C@H]21)C3(C)C.O.O.O [DOCETAXEL]
Activity (Mus musculus [20]): Non-toxic
inhibition (MDA-MB-435 [21]): Active
inhibition (MDA-MB-435 [22]): Active
inhibition (4T1 [23]): Active
Activity (Mus musculus [24]): Non-toxic
inhibition (U-251 [25]): Active
Activity (Mus musculus [26]): Non-toxic
inhibition (4T1 [27]): Active
